In ChEMBL document CHEMBL6134922 (ACS Med Chem Lett, 2025):

What was measured:
[1] = Plasma protein binding in human assessed as percent bound at 5 uM incubated for 6 hrs by equilibrium dialysis based HPLC analysis
[2] = Plasma protein binding in mouse assessed as bound fraction at 5 uM incubated for 6 hrs by equilibrium dialysis based HPLC analysis
[3] = Plasma protein binding in human assessed as unbound fraction at 5 uM incubated for 6 hrs by equilibrium dialysis based HPLC analysis; type: ADME, cell-free
[4] = Plasma protein binding in mouse assessed as unbound fraction at 5 uM incubated for 6 hrs by equilibrium dialysis based HPLC analysis; type: ADME, cell-free
[5] = AUC in CD-1 mouse at 10 mg/kg, ip measured up to 24 hrs by LC-MS/MS analysis; type: ADME, organism-based; conditions: in vivo
[6] = Cmax in CD-1 mouse at 10 mg/kg, ip measured up to 24 hrs by LC-MS/MS analysis; type: ADME, organism-based; conditions: in vivo
[7] = Unbound fraction in rat brain at 5 uM incubated for 6 hrs by equilibrium dialysis based HPLC analysis; type: ADME, tissue-based
[8] = AUC in CD-1 mouse at 10 mg/kg, po measured up to 24 hrs by LC-MS/MS analysis; type: ADME, organism-based; conditions: in vivo
[9] = Cmax in CD-1 mouse at 10 mg/kg, po measured up to 24 hrs by LC-MS/MS analysis; type: ADME, organism-based; conditions: in vivo
[10] = Unbound fraction in mouse brain at 5 uM incubated for 6 hrs by equilibrium dialysis based HPLC analysis; type: ADME, tissue-based

CC(C)(C)OC(=O)Nc1ccc(Cl)c(C(=O)Nc2ncc(C#Cc3ccccc3)cc2F)c1
plasma protein binding (% bound) [1]: 99.8% | plasma protein binding (% bound) [2]: 98.9%

Cc1cc(C#Cc2cccc(F)c2)cnc1NC(=O)c1cc(NC(=O)OC(C)(C)C)ccc1Cl
fraction unbound at 6 h, 5 µM [3]: > 0.999 | fraction unbound at 6 h, 5 µM [4]: > 0.999

Cc1cc(C#Cc2ccc(F)cc2)cnc1NC(=O)c1cc(NC(=O)OC(C)(C)C)ccc1Cl
AUC at 24 h [5]: 12.3 µM·h | Cmax [6]: 888 nM | fraction unbound at 6 h, 5 µM [7]: > 0.999 | AUC at 24 h [8]: 2.27 µM·h | Cmax [9]: 252 nM | fraction unbound at 6 h, 5 µM [10]: 0.994

Cc1cc(C#Cc2ccccc2)cnc1NC(=O)c1cc(NC(=O)OC(C)(C)C)ccc1Cl
plasma protein binding (% bound) [1]: 99.5% | plasma protein binding (% bound) [2]: 98.7%

CC(C)(C)OC(=O)Nc1ccc(Cl)c(C(=O)Nc2ncc(C#Cc3ccccc3)cc2Cl)c1
fraction unbound at 6 h, 5 µM [4]: > 0.999
